Patent US20080200428A1, “Antiproliferative Drug” (priority 2005, published 2008)
Marks after values point to notes of the source that are not given here.

How the values were obtained:
[1] = test system: IGR-OV1 human ovary carcinoma cells; assay: In-vitro antiproliferative activity, MTT test; assay type: cell-based; details: 5 days treatment, MTT on day 6, read-out: IC50, concentration necessary to reduce cell growth to 50% of control
Procedure: (§1) Antiproliferative activity of the conjugates was determined on 2 lines of human mammary carcinoma (MCF-7, MDA-MB-231), and on 2 lines of human ovary carcinoma (SK-OV-3, IGR-OV1) with different Reduced Folate Carrier (RFC) expression, and on a non-tumour line originating from healthy mammary ductal epithelium (HBL-100 line). Cells were incubated in 96-well plates for 5 days in complete medium (consisting of DMEM/F12, with 10% FBS, foetal bovine serum, 1% L-glutamine 100× (200 mM) and 1% penicillin-streptomycin (Euroclone) for MCF-7, IGROV-1 and MDA-MB-231; RPMI-1640 with 10% FBS, foetal bovine serum, 1% L-glutamine 100× (200 mM) and 1% penicillin-streptomycin (Euroclone) for SKOV-1; McCoy's with 10% FBS, foetal bovine serum, 1% L-glutamine 100× (200 mM) and 1% penicillin-streptomycin (Sigma) for HBL-100 at 37° C. and controlled atmosphere (5% CO2), with MTX-Na or with conjugate; the conjugates were tested at doses equimolar with those of MTX-Na, in the range 1-30 nM. Cytotoxicity was determined on day 6 (after 5 days treatments) by the MTT test, by measuring cell viability as the cell metabolic capacity to transform the tetrazolium salt of MTT in the blue formazan, by mitochondrial dehydrogenases; the blue colour is read at 570 nm with a spectrophotometer. The following conjugates were tested.

[2] = test system: SK-OV-3 human ovary carcinoma cells; assay: In-vitro antiproliferative activity, MTT test; assay type: cell-based; details: 5 days treatment, MTT on day 6, read-out: IC50, concentration necessary to reduce cell growth to 50% of control
Procedure: as §1

[3] = test system: MCF-7 human mammary carcinoma cells; assay: In-vitro antiproliferative activity, MTT test; assay type: cell-based; details: 5 days treatment, MTT on day 6, read-out: IC50, concentration necessary to reduce cell growth to 50% of control
Procedure: as §1

[4] = test system: HBL-100 non-tumour line from healthy mammary ductal epithelium; assay: In-vitro antiproliferative activity, MTT test; assay type: cell-based, human; details: 5 days treatment, MTT on day 6, read-out: IC50, concentration necessary to reduce cell growth to 50% of control
Procedure: as §1

[5] = test system: B16/F10 melanoma cells; assay: In-vivo antiproliferative activity: liver metastases after intraspleen implant of B16/F10 melanoma; parameters: species or system BD2F1 mice; details: for Animals free of macroscopically detectable liver metastases over total number of mice / Mice with metastases larger than 3 mm / Mice with more than 3 visible hepatic tumour nodules / Spleen weight: Day 21
Procedure: BD2F1 mice weighing 18-20 g were implanted intraspleen (i.s) with 100.000 B16/F10 melanoma cells on Day 0, under sterile conditions and Zoletil® (70 mg/kg), anaesthesia, following surgical opening of peritoneum and spleen immobilisation. Tumour cells, suspended in diluted Matrigel® (150 μg/ml), were injected i.s. in a volume of 0.05 ml. The B16F10 melanoma cells were cultured in Modified Eagle Medium. Cells were maintained in a humidified 5% CO2 atmosphere at 37° C. Animals were then randomly divided into 5 groups (each of 7-8 female), implanted i.s. with 100.000 B16/F10 melanoma cells on Day 0, were treated i.v. (on Days 3, 6 and 9) with HA-MTX at 2, 1 and 0.50 mg/kg/day or MTX-Na at 8.5, 6 and 3 mg/kg/day. Doses are referred to equivalents of MTX. The data originate from 4 separate experiments.
The evaluation of livers and counting of liver metastases under a low power stereo microscope equipped with a calibrated grid was performed on Day 21. Livers were then stored in formaldehyde for preparation for light microscopy observations.

[6] = 3 mg MTX/kg/die i.v. on days 3, 6, 9
[7] = 6 mg MTX/kg/die i.v. on days 3, 6, 9
[8] = 8.5 mg MTX/kg/die i.v. on days 3, 6, 9
[9] = 0.5 mg MTX/kg/die i.v. on days 3, 6, 9
[10] = 1 mg MTX/kg/die i.v. on days 3, 6, 9
[11] = 2 mg MTX/kg/die i.v. on days 3, 6, 9

“6-O-Butyryl-6-O-methotrexyl-hyaluronic acid [Ex 24]” was tested, and the IC50 [1] was 2160 nM, the IC50 [2] was 1670 nM and the IC50 [3] was 1700 nM. It also gave an IC50 [4] of 2110 nM.

“6-O-acetyl-6-O-methotrexyl-hyaluronic acid [Ex 21]” showed an IC50 [1] of 2740 nM, an IC50 [2] of 1820 nM and an IC50 [3] of 1970 nM. For the same compound, the IC50 [4] was 2050 nM.

In the case of CN(Cc1cnc2nc(N)nc(N)c2n1)c1ccc(C(=O)N[C@@H](CCC(=O)O)C(=O)O)cc1 [MTX-Na, methotrexate, reference compound], the “Animals free of macroscopically detectable liver metastases over total number of mice” value (from here on “Animals free … over total number of mice”) [5, 6] is reported as 6/16*, the “Mice with metastases larger than 3 mm” value [5, 6] is reported as 19% and the “Mice with more than 3 visible hepatic tumour nodules” value [5, 6] is reported as 38%. The Spleen weight [5, 6] was 227 ± 36 mg, the “Animals free … over total number of mice” value [5, 7] was 7/14** and the “Mice with metastases larger than 3 mm” value [5, 7] was 0%. For the same compound, the “Mice with more than 3 visible hepatic tumour nodules” value [5, 7] was 21%, the Spleen weight [5, 7] was 159 ± 7 mg and the “Animals free … over total number of mice” value [5, 8] was 8/16**. The “Mice with metastases larger than 3 mm” value [5, 8] was 0%, the “Mice with more than 3 visible hepatic tumour nodules” value [5, 8] was 13% and the Spleen weight [5, 8] was 149 ± 24 mg. The IC50 [1] was 140 nM, the IC50 [2] was 41 nM and the IC50 [3] was 81 nM. It also gave an IC50 [4] of 500 nM.

For HA-MTX [Ex 18], the “Animals free … over total number of mice” value [5, 9] was 6/15**, the “Mice with metastases larger than 3 mm” value [5, 9] was 13% and the “Mice with more than 3 visible hepatic tumour nodules” value [5, 9] was 27%. For the same compound, the Spleen weight [5, 9] was 155 ± 16 mg, the “Animals free … over total number of mice” value [5, 10] was 9/16*** and the “Mice with metastases larger than 3 mm” value [5, 10] was 0%. For the same compound, the “Mice with more than 3 visible hepatic tumour nodules” value [5, 10] was 31%, the Spleen weight [5, 10] was 199 ± 27 mg and the “Animals free … over total number of mice” value [5, 11] was 14/14***^§. For the same compound, the “Mice with metastases larger than 3 mm” value [5, 11] was 0%^; 0%°, the “Mice with more than 3 visible hepatic tumour nodules” value [5, 11] was 0%^; 0%° and the Spleen weight [5, 11] was 150 ± 37 mg. The “Dose giving comparable liver metastasis reduction, as fraction of the MTX-Na dose” value ([5]; 1 and 0.5 mg/kg/day vs 6 and 3 mg/kg/day MTX-Na) was “⅙”, the “Prevention of formation of liver metastasis” value ([5]; both after i.v. and i.p. administration) was “effective in preventing the formation of liver metastasis” and the “Effect on liver metastases of B16/F10 melanoma” value ([5]; i.v. 2 mg/kg/day (MTX equivalents) on days 3,6,9) was “complete disappearance of liver metastases”.
